Here are results for three compounds from patent US6753295B1, “Plant activator, process for producing the same, activation method, activity promoter and method for applying the promoter” (Hokkaido Green Kosan, Incorporated, priority 1999, dated 2004).

Common to all, as to type: cell-based
The test system of assay [1] is E. coli NIHJ JC-2. Nature of the assay: MIC, agar plate dilution method. The settings on record: E.coliNIHJ JC-2. The protocol:
(§1) 22 strains in total, that is, 1 strain of S. aureus 209P JC-1, 20 strains of 1G-stored, clinically separated Staphylococcus (10 strains each of MSSA and MRSA), and 1 strain of E. coli NIHJ JC-2 as the standard strain.
(§2) MW:168, methicilin (DMPPC, staphcililn for injection, Lot. No. FSB […], Banyu Pharmaceutical Co., Ltd.), vancomycin (VCM, Lot. No. 41H0457, 10750, SIGMA).
(§3) Mueller-Hinton agar (MIA, Difco) was used for measurement of antimicrobial properties, and Mueller Hinton broth (MHB, Difco) was used for pre-cultivation.
(§4) The minimum inhibitory concentration (MIC) of each chemical against the used strain was determined according to an agar plate dilution method in accordance with the standard methods of Japanese Society of Chemotherapy. The strain was sprayed onto MHA and cultured at 37° C. overnight, and the resultant colonies were cultured in MHB at 37° C. overnight, and its microbial liquid was diluted 100-fold (1000-fold dilution for E. coli) and used as inoculation liquid.

The test system of assay [2] is S. aureus 209P JC-1. As to the kind of experiment: MIC, agar plate dilution method. The settings on record: S.aureu209P JC-1. The procedure:
as §1, §2, §3, §4

In assay [3] the test system is clinically separated Staphylococcus (MSSA and MRSA). Nature of the assay: MIC, agar plate dilution method. The protocol:
as §1, §2, §3, §4

For assay [4], the system named is Erwinia sp. As to the kind of experiment: paper disk bioassay of the purified product against bacteria. The note with it: 1000, 500 and 250 ppm; 37° C., 18 hours. The procedure:
(§5) An agar medium containing a test bacterium was placed in a Petri dish and fixed therein. A paper disk containing the sample was placed thereon and incubated at 37° C. for 18 hours, and formation of a circle of inhibited growth was confirmed.
(§6) The following 4 strains were used: Staphylococcus aureus 209P, Pseudomonas syringal, Xanthomonoas Campestris pv. citri, and Erwinia sp.
(§7) For pre-culture, a bouillon medium (DIFCO) was used, and after overnight cultivation, the cultivation medium was diluted at ×10^2 and mixed with 0.5% upper-layer medium. As the medium for measuring the bacterium, Mycin agar (Mikumi Kagaku) was used.
(§8) Upper layer−1.5% Mycin agar (Mikuni Kagaku)+0.5% Mycin agar mixed with the overnight cultivation (diluted at ×10^2) in 2% bouillon medium (DIFCO)
(§9) Lower layer−2.0% Mycin agar (Mikuni Kagaku)
(§10) A paper disk was impregnated with the isolated and purified product prepared at 1000 ppm, 500 ppm and 250 ppm respectively was air-dried, placed on the Petri dish and incubated at 37° C. for 18 hours, and whether a circle of inhibited growth was formed or not was observed.

The test system of assay [5] is Pseudomonas syringal. Described as above. The note with it: 1000, 500 and 250 ppm; 37° C., 18 hours. The procedure:
as §5, §6, §7, §8, §9, §10

The subject of assay [6] is Staphylococcus aureus 209P. The assay is described as above. The settings on record: 1000, 500 and 250 ppm; 37° C., 18 hours. The procedure:
as §5, §6, §7, §8, §9, §10

Assay [7] relates to Xanthomonoas Campestris pv. citri. The assay is described as above. The note with it: 1000, 500 and 250 ppm; 37° C., 18 hours. The protocol:
as §5, §6, §7, §8, §9, §10

Molecules are shown by their SMILES.

As for `COc1cccc(OC)c1C(=O)N[C@@H]1C(=O)N2[C@@H]1SC(C)(C)[C@@H]2C(=O)O` [DMPP, methicilin], the MIC amounted to 3.13 micro gram/ml in assay [1]; 1.56 micro gram/ml in assay [2]; 1.56 micro gram/ml in assay [3] (MRSA TH948); 3.13 micro gram/ml in assay [3] (MRSA TH949); 3.13 micro gram/ml in assay [3] (MRSA TH950); 3.13 micro gram/ml in assay [3] (MRSA TH951). The MIC in assay [3] (MRSA TH952) was 1.56 micro gram/ml; in assay [3] (MRSA TH953), 3.13 micro gram/ml; in assay [3] (MRSA TH954), 3.13 micro gram/ml; in assay [3] (MRSA TH955) it was 1.56 micro gram/ml; in assay [3] (MRSA TH956) it was 3.13 micro gram/ml; in assay [3] (MRSA TH957), 1.56 micro gram/ml. The MIC in assay [3] (MRSA TH972) is given as above 12.5 micro gram/ml; in assay [3] (MRSA TH973), above 12.5 micro gram/ml; in assay [3] (MRSA TH974) it was above 12.5 micro gram/ml; in assay [3] (MRSA TH975) it was above 12.5 micro gram/ml; in assay [3] (MRSA TH976), above 12.5 micro gram/ml; in assay [3] (MRSA TH1350), 12.5 micro gram/ml. The MIC is on record as 6.25 micro gram/ml in assay [3] (MRSA TH1351), above 12.5 micro gram/ml in assay [3] (MRSA TH1352), above 12.5 micro gram/ml in assay [3] (MRSA TH1353) and above 12.5 micro gram/ml in assay [3] (MRSA TH1354).
In the case of `O=C(O)/C=C/C1=CC(=O)CC1O` (centres unmarked) [MW168, 3(3-hydroxy-cyclopropene 5-one-2-yl)2-propenoic acid], the “circle of inhibited growth / activity against the bacteria” value in assay [4], in assay [5], in assay [6] and in assay [7] was “no or less activity” each time. In addition, the MIC in assay [1], in assay [2], in assay [3] (MRSA TH948), in assay [3] (MRSA TH949), in assay [3] (MRSA TH950) and in assay [3] (MRSA TH951) was above 50 micro gram/ml throughout. Also, the MIC in assay [3] (MRSA TH952), in assay [3] (MRSA TH953), in assay [3] (MRSA TH954), in assay [3] (MRSA TH955), in assay [3] (MRSA TH956) and in assay [3] (MRSA TH957) was above 50 micro gram/ml throughout. Moreover, the MIC in assay [3] (MRSA TH972), in assay [3] (MRSA TH973), in assay [3] (MRSA TH974), in assay [3] (MRSA TH975), in assay [3] (MRSA TH976) and in assay [3] (MRSA TH1350) was above 50 micro gram/ml throughout. The MIC in assay [3] (MRSA TH1351), in assay [3] (MRSA TH1352), in assay [3] (MRSA TH1353) and in assay [3] (MRSA TH1354) was above 50 micro gram/ml in each case. Besides, the “antimicrobial properties against Staphylococcus” value in assay [3] (concentrations used 50˜0.10 micro gram/ml) was “no or less activity”.
With `CN[C@H](CC(C)C)C(=O)N[C@H]1C(=O)N[C@@H](CC(N)=O)C(=O)N[C@H]2C(=O)N[C@H]3C(=O)N[C@H](C(=O)N[C@H](C(=O)O)c4cc(O)cc(O)c4-c4cc3ccc4O)[C@H](O)c3ccc(c(Cl)c3)Oc3cc2cc(c3O[C@@H]2O[C@H](CO)[C@@H](O)[C@H](O)[C@H]2O[C@H]2C[C@](C)(N)[C@H](O)[C@H](C)O2)Oc2ccc(cc2Cl)[C@H]1O` [VCM, vancomycin], the MIC is given as above 6.25 micro gram/ml in assay [1]; 0.78 micro gram/ml in assay [2]; 0.78 micro gram/ml in assay [3] (MRSA TH948); 0.78 micro gram/ml in assay [3] (MRSA TH949); 0.78 micro gram/ml in assay [3] (MRSA TH950); 0.78 micro gram/ml in assay [3] (MRSA TH951). The MIC in assay [3] (MRSA TH952), in assay [3] (MRSA TH953), in assay [3] (MRSA TH954), in assay [3] (MRSA TH955), in assay [3] (MRSA TH956) and in assay [3] (MRSA TH957) was 0.78 micro gram/ml in each case. Further, the MIC in assay [3] (MRSA TH972), in assay [3] (MRSA TH973), in assay [3] (MRSA TH974), in assay [3] (MRSA TH975), in assay [3] (MRSA TH976) and in assay [3] (MRSA TH1350) was 0.78 micro gram/ml throughout. The MIC in assay [3] (MRSA TH1351), in assay [3] (MRSA TH1352), in assay [3] (MRSA TH1353) and in assay [3] (MRSA TH1354) was 0.78 micro gram/ml each time.
